Test results published in patent publication US20190125896A1, “ANTI-INFECTIVE COMPOSITIONS COMPRISING PHYTOGLYCOGEN NANOPARTICLES” (MIREXUS BIOTECHNOLOGIES INC., priority 2016, published 2019).
Read-outs that look alike come from different tables or passages of the source.

Tests used:
C. utilis ATCC9950 = experiment: Sensitization to antibiotics: MIC in medium supplemented with phytoglycogen; format: cell-based; conditions: Candida utilis
Procedure: (§1) MIC assays as defined in Example 15 were performed in sterile and untreated 96 well microtitre plates according to the broth micro-dilution technique described in either the Clinical and Laboratory Standards Institute document M07-A9: Methods for Dilution Antimicrobial Susceptibility Tests for Bacteria that Grow Aerobically; Approved Standard and document M27-A2 Reference Method for Broth Dilution Antifungal Susceptibility Testing of Yeasts; Approved Standard—Second Edition, with the exception that, where indicated, medium was additionally supplemented with native or cationized phytoglycogen. Assessments done using C. utilis ATCC9950, B. subtilis 168 and E. coli AB264 employed native or cationized phytoglycogen at concentrations ⅛, ¼, ½ their respective MIC values for cationized phytoglycogen. Assessments of the opportunistic pathogen P. aeruginosa PAO1 were made at final in-assay concentrations of 0.5, 1 or 10 mg native or cationized phytoglycogen.ml^−1. Experiments were performed as in-assay duplicates, and were repeated a minimum of three times (n=6).
(§2) MIC assays were performed in duplicate within each experiment and were repeated a minimum three times to confirm the data (n=6). MIC values with a four-fold or greater change relative to the non-supplemented medium MIC represent a statistically-significant change in MIC value. Only those antibiotic-cationized phytoglycogen combinations which caused a four-fold change relative to the non-supplemented medium MIC were deemed as indicative of resulting in potentiation (MIC value was less), or tolerance (MIC value increased).

Candida utilis ATCC9950 = experiment: MIC of amphotericin B-phytoglycogen conjugate, modified broth microdilution; format: cell-based; conditions: 35° C.
Procedure: The activity of the amphotericin B-phytoglycogen conjugate (PHG-AMB) was assayed against a yeast, Candida utilis ATCC9950, using a modified broth microdilution assay (CLSI M27-A2; Example 15). RPMI 1640 medium (Sigma-Aldrich; Canada), containing no sodium bicarbonate, supplemented with 0.165 M MOPS and adjusted to a pH of 7.0, was used for the assay. Stocks of 1600 μg AMB/ml DMSO were stored at −80° C. and diluted prior to use. 500 μg PHG-AMB.ml^−1 RPMI 1640 was prepared fresh on the day of assay. Briefly, doubling dilutions of 16 μg AMB.ml^−1 RPMI 1640 and 500 μg PHG-AMB.ml^−1 RPMI 1640 were prepared by serial two-fold dilution in RPMI 1640. Controls comprised AMB supplemented with phytoglycogen adjusted to mimic the changing concentration of PHG-AMB in the wells. Negative growth control wells contained sterile medium. Positive growth control wells contained medium or medium supplemented with phytoglycogen. […] Assays were performed as in duplicate replicate with a minimum of three independent replicates.

E. coli AB264 = experiment: Sensitization to antibiotics: MIC in medium supplemented with phytoglycogen; format: cell-based; conditions: Escherichia coli; for fold-change reduction in MIC, CP0.125: cationized phytoglycogen at 0.125 of its MIC; for fold-change reduction in MIC, CP0.25: cationized phytoglycogen at 0.25 of its MIC; for fold-change reduction in MIC, CP0.5: cationized phytoglycogen at half-strength of its MIC
B. subtilis 168 = experiment: as above; format: cell-based; conditions: Bacillus subtilis; for fold-change reduction in MIC, CP0.125: cationized phytoglycogen at 0.125 of its MIC; for fold-change reduction in MIC, CP0.25: cationized phytoglycogen at 0.25 of its MIC; for fold-change reduction in MIC, CP0.5: cationized phytoglycogen at half-strength of its MIC
P. aeruginosa PAO1 = experiment: as above; format: cell-based, Pseudomonas aeruginosa; conditions: for ↓ Fold-change in MIC (cationized phytoglycogen) MIC.5 mg/ml: 0.5 mg cationized phytoglycogen · ml^−1 Mueller-Hinton Broth; for ↓ Fold-change in MIC (cationized phytoglycogen) MIC1 mg/ml: 1 mg cationized phytoglycogen · ml^−1 Mueller-Hinton Broth; for ↓ Fold-change in MIC (cationized phytoglycogen) MIC10 mg/ml: 10 mg cationized phytoglycogen · ml^−1 Mueller-Hinton Broth
Procedure: as §1, §2

[1] = tested on: P. aeruginosa PAO1 biofilm; experiment: Biofilm eradication: 20 h biofilms treated with antibiotic and cationized phytoglycogen; format: cell-based, Pseudomonas aeruginosa; conditions: 24 h, medium alone
Procedure: Biofilm growth and treatments were performed in sterile 96 well polystyrene plates. Sterile solutions of gamma-irradiated cationized phytoglycogen was prepared by reconstitution and dilution as required in sterile Mueller-Hinton broth. P. aeruginosa PAO1 stocks were revived by sub-culturing P. aeruginosa PAO1 (37° C., 150 rpm, 16-18 h) in Mueller-Hinton broth (Oxoid; Fisher Scientific, Canada). The inoculum was prepared immediately prior to use by diluting in sterile Mueller-Hinton broth to a final in-assay cell density of 5×10^5 CFU.ml^−1. 100 μl of this solution was transferred to wells and incubated (37° C., 150 rpm). Sterile broth was the negative growth control. At 20 h, plates were transferred to a biological safety cabinet, well contents were gently aspirated and the wells rinsed with sterile 0.9% (wt/vol) NaCl. […] Positive growth controls contained inoculated medium, non-supplemented or with 1 or 10 mg cationized phytoglycogen.ml^−1. Plates were incubated at 37° C. for a further 24 h, after which biofilms were quantitated as previously described. Experiments were done in quadruplicate replicate and repeated three times (n=12).

[2] = Pseudomonas aeruginosa, PAO1, P. aeruginosa, non-supplemented Mueller-Hinton Broth, read-out: MIC
[3] = P. aeruginosa, non-supplemented Mueller-Hinton Broth

Molecule | fold-change reduction in MIC, CP0.125 (E. coli AB264) | fold-change reduction in MIC, CP0.25 (E. coli AB264) | fold-change reduction in MIC, CP0.5 (E. coli AB264) | fold-change reduction in MIC, CP0.125 (B. subtilis 168) | fold-change reduction in MIC, CP0.25 (B. subtilis 168) | fold-change reduction in MIC, CP0.5 (B. subtilis 168) | ↓ Fold-change in MIC (cationized phytoglycogen) MIC.5 mg/ml (P. aeruginosa PAO1; P. aeruginosa) | ↓ Fold-change in MIC (cationized phytoglycogen) MIC1 mg/ml (P. aeruginosa PAO1; P. aeruginosa) | ↓ Fold-change in MIC (cationized phytoglycogen) MIC10 mg/ml (P. aeruginosa PAO1; P. aeruginosa) | MIC (P. aeruginosa PAO1; [2]) [µg/mL] | further results
C[C@@H]1[C@H](O)[C@@H](C)/C=C/C=C/C=C/C=C/C=C/C=C/C=C/[C@H](O[C@@H]2O[C@H](C)[C@@H](O)[C@H](N)[C@@H]2O)C[C@@H]2O[C@](O)(C[C@@H](O)C[C@@H](O)[C@H](O)CC[C@@H](O)C[C@@H](O)CC(=O)O[C@H]1C)C[C@H](O)[C@H]2C(=O)O [amphotericin B] | – | – | – | – | – | – | – | – | – | – | fold-change reduction in MIC, CP0.125 (C. utilis ATCC9950; cationized phytoglycogen at 0.125 of its MIC): 1-2 fold; fold-change reduction in MIC, CP0.25 (C. utilis ATCC9950; cationized phytoglycogen at 0.25 of its MIC): 1 fold; fold-change reduction in MIC, CP0.5 (C. utilis ATCC9950; cationized phytoglycogen at half-strength of its MIC): ↓4 fold; MIC (Candida utilis ATCC9950; RPMI 1640, 48 h): 0.5 μg AMB.ml^−1; MIC (Candida utilis ATCC9950; RPMI 1640 supplemented with phytoglycogen, 48 h): 0.5 μg AMB.ml^−1
CC1(C)S[C@@H]2[C@H](NC(=O)[C@H](N)c3ccccc3)C(=O)N2[C@H]1C(=O)O [ampicillin] | 1-2 fold | 1-2 fold | 1-2 fold | 1 fold | 1 fold | 2 fold | ↓ 8 fold | ↓ 8-16 fold | 2 fold | 1020 | –
CC1(C)S[C@@H]2[C@H](NC(=O)C(C(=O)O)c3ccccc3)C(=O)N2[C@H]1C(=O)O (stereo partly shown) [carbenicillin] | 1-2 fold | ↓4-8 ^ fold | ↓8-16^ fold | 1 fold | 2 fold | ↓4-8 fold | ↓ 16-32 fold | ↓ 32 fold | ↓ 8-16 fold | 64 | –
CC(C)(O/N=C(\C(=O)N[C@@H]1C(=O)N2C(C(=O)[O-])=C(C[n+]3ccccc3)CS[C@H]12)c1csc(N)n1)C(=O)O [ceftazidime] | – | – | – | – | – | – | ↓ 8 fold | ↓ 32-64 fold | ↓ 4-8 fold | 2 | –
O=C(N[C@H](CO)[C@H](O)c1ccc([N+](=O)[O-])cc1)C(Cl)Cl [chloramphenicol] | 1-2 fold | 1-2 fold | 1-2 fold | 1 fold | ↓2-4 fold | – | ↓ 4 fold | ↓ 8 fold | 2 fold | 64 | –
O=C(O)c1cn(C2CC2)c2cc(N3CCNCC3)c(F)cc2c1=O [ciprofloxacin] | – | – | – | – | – | – | – | – | – | – | change in biofilm of 20 h biofilms ([1]; at the MIC): no change in biofilm; reduction of biofilm ([1]; four-fold the MIC): 73%; reduction of biofilm ([1]; two-fold the MIC): 64%
CC[C@H]1OC(=O)[C@H](C)[C@@H](O[C@H]2C[C@@](C)(OC)[C@@H](O)[C@H](C)O2)[C@H](C)[C@@H](O[C@@H]2O[C@H](C)C[C@H](N(C)C)[C@H]2O)[C@](C)(O)C[C@@H](C)C(=O)[C@H](C)[C@@H](O)[C@]1(C)O [erythromycin] | 1-2 fold | 1-2 fold | 1-2 fold | 1-2 fold | ↓2-4 fold | ↓2-4 fold | ↓ 4 fold | ↓ 8 fold | 1-2 fold | 128 | –
CCn1cc(C(=O)O)c(=O)c2ccc(C)nc21 [nalidixic acid] | – | – | – | – | – | – | ↓ 4-32 fold | ↓ 16-32 fold | ↓ 8-16 fold | 1020 | –
CO[C@@H]1[C@@H](OC(N)=O)[C@@H](O)[C@H](Oc2ccc3c(O)c(NC(=O)c4ccc(O)c(CC=C(C)C)c4)c(=O)oc3c2C)OC1(C)C [novobiocin] | – | – | – | – | – | – | ↓ 4-16 fold | ↓ 16-32 fold | ↓ 4 fold | 2050 | –
CC1(C)S[C@@H]2[C@H](NC(=O)Cc3ccccc3)C(=O)N2[C@H]1C(=O)O [penicillin G] | 1-2 fold | ↓4-8 ^ fold | ↓8 fold | 1-2 fold | ↓8-16 fold | ↓16-32 fold | ↓ 16-32 fold | ↓64-128 fold | ↓ 2-4 fold | – | MIC (P. aeruginosa PAO1; [3]): 12500 µg/mL
CN(C)[C@@H]1C(O)=C(C(N)=O)C(=O)[C@@]2(O)C(O)=C3C(=O)c4c(O)cccc4[C@@](C)(O)[C@H]3C[C@@H]12 [tetracycline] | – | – | – | – | – | – | ↓ 8 fold | ↓ 8 fold | 2 fold | 16 to 32 | –
CN[C@H](CC(C)C)C(=O)N[C@H]1C(=O)N[C@@H](CC(N)=O)C(=O)N[C@H]2C(=O)N[C@H]3C(=O)N[C@H](C(=O)N[C@H](C(=O)O)c4cc(O)cc(O)c4-c4cc3ccc4O)[C@H](O)c3ccc(c(Cl)c3)Oc3cc2cc(c3O[C@@H]2O[C@H](CO)[C@@H](O)[C@H](O)[C@H]2O[C@H]2C[C@](C)(N)[C@H](O)[C@H](C)O2)Oc2ccc(cc2Cl)[C@H]1O [vancomycin] | 1-2 fold | ↓2-4 ^ fold | ↓4-16^ fold | 1 fold | 1 fold | 1-2 fold | ↓ 2-4 fold | ↓ 16 fold | ↓ 4 fold | – | MIC (P. aeruginosa PAO1; Pseudomonas aeruginosa, PAO1, read-out: MIC (μg · ml^−1)): 1020 µg/mL
gentamicin | 1-2 fold | 2 fold | ↓4-8 ^ fold | 1-2 fold | ↓2-4 fold | ↓4-8 fold | 2 fold | 2 fold | 1 fold | – | MIC (P. aeruginosa PAO1; [3]): 0.5 µg/mL
polymyxin B [polymixin B] | – | – | – | – | – | – | 1-2 fold | ↓ 2-4 fold | 2 fold | – | MIC (P. aeruginosa PAO1; [3]): 0.125 to 0.25 µg/mL
